Key:
[1] = system: HDACs 1–3; experiment: HDAC biochemical assay, text summary over HDACs 1–3; design: species or system human; details: summary of Table 1; for IC50: read-out: IC50 for HDACs 1–3; for IC50 range in words: HDACs 1–3 where stated, unit inside the printed words
[2] = system: 797 NUT midline carcinoma cell line; experiment: 797 cell viability; type: cell-based; details: 48 hours incubation, ATPLite; ± standard error of LogIC50
[3] = system: 10326 NUT midline carcinoma cell line; experiment: 10326 cell viability; type: cell-based; details: 48 hours incubation, ATPLite; ± standard error of LogIC50
[4] = target: HDAC1 (Homo sapiens, UniProt Q13547); experiment: HDAC biochemical assay; details: relative to compound 6
Chain of HDAC1 (Q13547 whole entry): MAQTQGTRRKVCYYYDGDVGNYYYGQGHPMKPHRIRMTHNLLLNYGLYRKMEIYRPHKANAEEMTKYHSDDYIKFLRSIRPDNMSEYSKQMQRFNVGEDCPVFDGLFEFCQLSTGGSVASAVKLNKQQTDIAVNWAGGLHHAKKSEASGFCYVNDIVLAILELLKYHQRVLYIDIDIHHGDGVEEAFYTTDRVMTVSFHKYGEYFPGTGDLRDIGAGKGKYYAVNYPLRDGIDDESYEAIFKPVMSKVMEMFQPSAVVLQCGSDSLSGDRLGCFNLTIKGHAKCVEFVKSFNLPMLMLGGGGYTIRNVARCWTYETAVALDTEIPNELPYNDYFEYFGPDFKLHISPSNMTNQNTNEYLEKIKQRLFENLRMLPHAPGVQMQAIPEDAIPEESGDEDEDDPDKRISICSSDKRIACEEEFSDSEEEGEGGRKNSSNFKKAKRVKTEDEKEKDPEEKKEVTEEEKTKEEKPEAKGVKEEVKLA

Row | IC50 range in words [1] | fold decrease in activity in HDAC1 in going from 6 to its amide isostere [4] | SMILES | IC50 [1] | 797 LogIC50 [2] | 10326 LogIC50 [3]
1 | single digit nM range | – | CC(C)[C@@H]1NC(=O)[C@]2(C)CSC(=N2)c2ccnc(c2)CNC(=O)C[C@@H](/C=C/CCS)OC1=O [Compound 8, Depsipeptide pyridyl “OUT” thiol] | < 25 nM | – | –
2 | double-digit nM range | 16 fold | CC(C)[C@@H]1NC(=O)[C@]2(C)CSC(=N2)c2cccc(n2)CNC(=O)C[C@@H](/C=C/CCS)NC1=O [Compound 10, Peptide isostere pyridyl “IN” thiol] | – | – | –

Continued, compound first:

Row | SMILES | IC50 range in words [1] | fold decrease in activity in HDAC1 in going from 6 to its amide isostere [4] | IC50 [1] | 797 LogIC50 [2] | 10326 LogIC50 [3]
3 | CC(C)[C@@H]1NC(=O)[C@]2(C)CSC(=N2)c2csc(n2)CNC(=O)C[C@@H](/C=C/CCS)OC1=O [Compound 2, Largazole thiol, reference compound] | – | – | < 25 nM | – | –
4 | CC(C)[C@@H]1NC(=O)[C@]2(C)CSC(=N2)c2csc(n2)CNC(=O)C[C@@H](/C=C/CCS)NC1=O [Compound 4, Largazole peptide isostere thiol] | – | – | < 25 nM | −5.761 ± 0.05449 | −4.923 ± 0.9900
5 | CC(C)[C@@H]1NC(=O)[C@]2(C)CSC(=N2)c2cccc(n2)CNC(=O)C[C@@H](/C=C/CCS)OC1=O [Compound 6, Depsipeptide pyridyl “IN” thiol] | single digit nM range | – | < 25 nM | – | –
6 | CC(C)[C@@H]1NC(=O)[C@]2(C)CSC(=N2)c2ccnc(c2)CNC(=O)C[C@@H](/C=C/CCS)NC1=O [Compound 12, Peptide isostere pyridyl “OUT” thiol] | double-digit nM range | – | < 25 nM | – | –

From paper PMC4626217 (Bioorganic & medicinal chemistry, 2015)
